system: GM01896 cells (MPS II dermal fibroblasts); assay: Assay 1: MPS cellular assay, MPS II (heparan sulfate disaccharide biomarkers by LC-MS); format: cell-based, human; settings: Assay 1 for MPS II, heparan sulfate disaccharide biomarkers (I2a4, I2a6, I2S0 and/or I2S6), read-out: IC50 Range
Procedure, shortened: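 Heparan sulfate disaccharide biomarkers quantified by LC-MS after heparinase I/II/III digestion and isotopic aniline labelling, using GM01896 MPS II fibroblasts exposed to compound (at or below 30 μM, 4-21 days). Values given as IC50 by curve fitting; cell viability checked with alamar blue or ATP.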

Compound | IC50
Cn1nc(CCN2CCOCC2)c2ccc(-c3cc(Nc4ccc(-n5cccn5)cc4)nc(N4CCOCC4)n3)cc21 [{6-[1-methyl-3-(2-morpholin-4-ylethyl)(1H-indazol-6-yl)]-2-morpholin-4-ylpyrimidin-4-yl}(4-pyrazolylphenyl)amine] | < 500 nM
[6-(1-methyl(1H-indazol-6-yl))-2-morpholin-4-ylpyrimidin-4-yl][4-(3-methylpyrazolyl)phenyl]amine | < 500 nM
{6-[1-methyl-3-(2-morpholin-4-ylethyl)(1H-indazol-6-yl)]-2-morpholin-4-ylpyrimidin-4-yl}[4-(3-methylpyrazolyl)phenyl]amine | < 500 nM

same assay, conditions: Homo sapiens, Fibroblast, Assay 1 for MPS II, heparan sulfate disaccharide biomarkers (I2a4, I2a6, I2S0 and/or I2S6), read-out: IC50 Range

Compound | IC50
Cn1ccc2ccc(Nc3cc(-c4ccc5nc(CCN6CCOCC6)n(CC6CC6)c5c4)nc(N4CCOCC4)n3)cc21 [{6-[1-(cyclopropylmethyl)-2-(2-morpholin-4-ylethyl)benzimidazol-6-yl]-2-morpholin-4-ylpyrimidin-4-yl}(1-methylindol-6-yl)amine] | < 500 nM
Cc1nc2ccc(-c3cc(Nc4ccc5ccn(C)c5c4)nc(N4CCOCC4)n3)cc2n1CC1CC1 [{6-[1-(cyclopropylmethyl)-2-methylbenzimidazol-6-yl]-2-morpholin-4-ylpyrimidin-4-yl}(1-methylindol-6-yl)amine] | < 500 nM
Cc1nnc(-c2ccc(Nc3cc(-c4ccc5nc(C)n(CC6CC6)c5c4)nc(N4CCOCC4)n3)cc2)[nH]1 [{6-[1-(cyclopropylmethyl)-2-methylbenzimidazol-6-yl]-2-morpholin-4-ylpyrimidin-4-yl}[4-(5-methyl(4H-1,2,4-triazol-3-yl))phenyl]amine] | < 500 nM
Cc1c(C)n(C)c2cc(Nc3cc(-c4ccc5c(CCN6CCOCC6)nn(C)c5c4)nc(N4CCOCC4)n3)ccc12 [{6-[1-methyl-3-(2-morpholin-4-ylethyl)(1H-indazol-6-yl)]-2-morpholin-4-ylpyrimidin-4-yl}(1,2,3-trimethylindol-6-yl)amine] | 500 to 1000 nM
Cn1nc(CCN2CCOCC2)c2ccc(-c3cc(Nc4ccc(-n5nccn5)cc4)nc(N4CCOCC4)n3)cc21 [{6-[1-methyl-3-(2-morpholin-4-ylethyl)(1H-indazol-6-yl)]-2-morpholin-4-ylpyrimidin-4-yl}(4-(1,2,3-triazol-2-yl)phenyl)amine] | < 500 nM
Cn1nc(CCN2CCOCC2)c2ccc(-c3cc(Nc4ccc(-c5ncco5)cc4)nc(N4CCOCC4)n3)cc21 [{6-[1-methyl-3-(2-morpholin-4-ylethyl)(1H-indazol-6-yl)]-2-morpholin-4-ylpyrimidin-4-yl}(4-(1,3-oxazol-2-yl)phenyl)amine] | 500 to 1000 nM
Cn1nc(CCN2CCOCC2)c2ccc(-c3cc(Nc4ccc(-c5cocn5)cc4)nc(N4CCOCC4)n3)cc21 [{6-[1-methyl-3-(2-morpholin-4-ylethyl)(1H-indazol-6-yl)]-2-morpholin-4-ylpyrimidin-4-yl}(4-(1,3-oxazol-4-yl)phenyl)amine] | < 500 nM
Cc1ccc(Nc2cc(-c3ccc4c(CCN5CCOCC5)nn(C)c4c3)nc(N3CCOCC3)n2)cc1 [{6-[1-methyl-3-(2-morpholin-4-ylethyl)(1H-indazol-6-yl)]-2-morpholin-4-ylpyrimidin-4-yl}(4-methylphenyl)amine] | 500 to 1000 nM
Cn1nc(CCN2CCOCC2)c2ccc(-c3cc(Nc4ccc(-c5ccn[nH]5)cc4)nc(N4CCOCC4)n3)cc21 [{6-[1-methyl-3-(2-morpholin-4-ylethyl)(1H-indazol-6-yl)]-2-morpholin-4-ylpyrimidin-4-yl}(4-pyrazol-5-ylphenyl)amine] | < 500 nM
Cn1cccc1-c1ccc(Nc2cc(-c3ccc4c(CCN5CCOCC5)nn(C)c4c3)nc(N3CCOCC3)n2)cc1 [{6-[1-methyl-3-(2-morpholin-4-ylethyl)(1H-indazol-6-yl)]-2-morpholin-4-ylpyrimidin-4-yl}[4-(1-methylpyrrol-2-yl)phenyl]amine] | < 500 nM
Cn1ccc2ccc(Nc3cc(-c4ccc5c(CCN)nn(C)c5c4)nc(N4CCOCC4)n3)cc21 [{6-[3-(2-aminoethyl)-1-methyl(1H-indazol-6-yl)]-2-morpholin-4-ylpyrimidin-4-yl}(1-methylindol-6-yl)amine] | < 500 nM
Cn1ccc2ccc(Nc3cc(-c4ccc5c(CCCN)nn(C)c5c4)nc(N4CCOCC4)n3)cc21 [{6-[3-(3-aminopropyl)-1-methyl(1H-indazol-6-yl)]-2-morpholin-4-ylpyrimidin-4-yl}(1-methylindol-6-yl)amine] | < 500 nM
Cn1nc(CCCN)c2ccc(-c3cc(Nc4ccc(Cl)cc4)nc(N4CCOCC4)n3)cc21 [{6-[3-(3-aminopropyl)-1-methyl(1H-indazol-6-yl)]-2-morpholin-4-ylpyrimidin-4-yl}(4-chlorophenyl)amine] | 1000 to 5000 nM
Clc1ccc(Nc2cc(-c3ccc4c(Cl)nn(CCCN5CCOCC5)c4c3)nc(N3CCOCC3)n2)cc1 [{6-[3-chloro-1-(3-morpholin-4-ylpropyl)(1H-indazol-6-yl)]-2-morpholin-4-ylpyrimidin-4-yl}(4-chlorophenyl)amine] | 1000 to 5000 nM

system: cultured primary human fibroblast from MPS patients; assay: not given; settings: 30-60 mM sodium chlorate; cited from earlier work

Compound | effect on synthesis of PAPs (sulfate donor)
[Na+].[O-][Cl+2]([O-])[O-] [sodium chlorate] | inhibits the synthesis of PAPs

same assay, conditions: cells grown in the presence of sodium chlorate; cited from earlier work

Compound | sulfation of heparan sulfate produced by cells
[Na+].[O-][Cl+2]([O-])[O-] [sodium chlorate] | reduced sulfation
